Consider five compounds from paper PMC9774750, “Phenolic Fingerprinting and Bioactivity Profiling of Extracts and Isolated Compounds from Gypothamnium pinifolium Phil” (Antioxidants, 2022).

Entries after “also recorded” stand apart in the source; their conditions may differ. Some results are limits rather than exact numbers.

The test system of one test is intact rat aorta. Nature of the test: Vascular reactivity, relaxation of PE pre-contracted aortic rings. Particulars: 10^−9–10^−4 M, pre-contracted with 10^−6 M PE, three experiments. The arrangement: species or system Sprague Dawley rats. As to the method:
The investigation was conducted according to the local ethics research committee of Universidad de Antofagasta, which ratified the experimental procedures (CEIC #275/2020 and CEIC #366/2022) for the use of a normotensive animal model (n = 3–6). The characteristics of the animals were as follows: male Sprague Dawley rats, six to eight weeks old, weighing between 170 and 200 g. The animals were kept at room temperature (22–25 °C) with 45–51% of humidity with ad libitum free-choice access to tap water and food and were randomized.
All the animals were euthanized by cervical dislocation and immediately proceeded to dissection of the aorta. Then the vascular tissue was arranged in organ baths that were filled with Krebs-Ringer bicarbonate solution pH 7.4 and remained at 37 °C with a constant flux of gas (95% O2 and 5% CO2). Once the tissue was stabilized and the integrity of the vascular endothelium was evaluated, the aortic rings were pre-contracted with 10^−6 M phenylephrine (PE), and after ten minutes, increasing concentrations of G. pinifolium extract, 2-nor-1,2-secolycoserone or ent-labda-8,13-E-diene-15-ol were added in the organ bath.
The data acquired from vascular reactivity assays were expressed as average ± standard error of the mean (SEM). One-way analysis of variance (ANOVA) followed by the Dunnett test was employed for statistical data analysis. […]

Test [1] has as its target T1, acetylcholinesterase (AChE) (Electrophorus electricus, UniProt O42275).
T1 construct: purchased Sigma-Aldrich Chem. Co. (St. Louis, MO, USA)
Nature of the test: biochemical. The conditions noted are these: means ± SD, n = 3; read-out: AChE Inhibition IC50 (converted). As to the method: (§1) The systems Arium 126 61316-RO and Arium 611 UV unit (Sartorius, Goettingen, Germany) were employed to get the ultra-pure water. […] Formic acid, methanol, ethyl acetate, and n-hexane of HPLC grade were obtained from Merk® (Santiago, Chile).
(§2) The Ellman method was used for the determination of the inhibitory potential against AChE and BChE. The enzymes were dissolved in Tris-HCl buffer 50 mM at pH 8.0 at the final concentration of 0.26 U/mL, and samples were prepared at 2 mg/mL and dissolved in buffer. […] Finally, to start the reaction, we added 20 µL of the substrate (acetyl-thiocholine iodide for AChE inhibition or butyryl-thiocholine chloride for BChE inhibition assays), and the absorbance was recorded at 405 nm for half an hour at 37 °C. The analysis was performed in triplicate, and the results are expressed as IC50.

Test [2] concerns the target T2, butyrylcholinesterase (BChE) (Equus caballus, UniProt P81908).
T2 construct: purchased Sigma-Aldrich Chem. Co. (St. Louis, MO, USA); host or cells: equine serum
Nature of the test: biochemical. Particulars: means ± SD, n = 3; read-out: BChE Inhibition IC50 (converted). As to the method:
as §1, §2

In the next test the test system is A549 cells (lung). Nature of the test: Antiproliferative activity (SRB), A549. Particulars: means ± SEM, n = 3. The class given is cell-based, human. How it is done:
(§3) Stock solutions in DMSO of the samples were prepared to dissolve the plant extract at a concentration of 100 mg/mL and the pure compounds 1–2 at 40 mM. For the antiproliferative activity tests, human solid tumor cells (100 µL) were seeded onto 96-well plates at a density of 2500 (A549, HBL-100, HeLa, and SW1573) or 5000 (T-47D, and WiDr) cells/well.
(§4) On the next day, the samples were added to the cell cultures in triplicate at decimal dilutions in the range 250 to 2.5 µg/mL for the extracts and 100 to 0.001 µM for compounds 1–2. Control cells were exposed to an equivalent amount of DMSO (0.25% v/v, negative control). Cells were incubated for an additional 48 h, after which time they were precipitated with 25 μL of ice-cold TCA (50% w/v) and fixed for 60 min at 4 °C [20]. Following sulforhodamine B staining, the optical density (OD) of each well was measured at 530 nm using a BioTek Power Wave XS absorbance microplate reader. Values were corrected with the background OD of the wells containing the control. […] The cell lines used in this study were kindly provided by Prof. Godefridus J. Peters (VUmc, Amsterdam, The Netherlands).

The next test concerns HBL-100 cells (breast). Nature of the test: Antiproliferative activity (SRB), HBL-100. The class given is cell-based, human. The conditions noted are these: means ± SEM, n = 3. As to the method: as §3, §4
The subject of another test is HeLa cells (cervix). Nature of the test: Antiproliferative activity (SRB), HeLa. The class given is cell-based. The conditions noted are these: 48 h; for TGI (total growth inhibition) against HeLa cells / GI50: SRB; for LC50 (50% lethal concentration): read-out: LC50 against HeLa cells; for GI50: means ± SEM, n = 3. How it is done: as §3, §4
Another test concerns SW1573 cells (lung). Nature of the test: Antiproliferative activity (SRB), SW1573. The class given is cell-based, human. Particulars: means ± SEM, n = 3. How it is done:
as §3, §4

Another test concerns T-47D cells (breast). Nature of the test: Antiproliferative activity (SRB), T-47D. It counts as cell-based, human. Particulars: 48 h, means ± SEM, n = 3. How it is done: as §3, §4
A further test concerns WiDr cells (colon). Nature of the test: Antiproliferative activity (SRB), WiDr. The class given is cell-based, human. The conditions noted are these: 48 h, means ± SEM, n = 3. As to the method: as §3, §4
Another test deals with MCF-7. The arrangement: method as in doi:10.1016/j.indcrop.2015.06.033. The conditions noted are these: 24 h of drug exposure; read-out: IC50 cell growth inhibition MCF-7; cited from earlier work.
Test [3] has as its system A549, SW1573, HBL-100, T-47D, HeLa, WiDr. Nature of the test: Antiproliferative activity (SRB), panel of six human solid tumor cell lines. It counts as cell-based. The conditions noted are these: 48 h, read-out: GI50 range over all cell lines. How it is done: as §3, §4
A further test concerns HeLa cells. Nature of the test: Label-free continuous live-cell imaging, apoptosis kinetics (LCDA). Particulars: 20 h exposure, 1 at 80 µM, 2 at 50 µM. It counts as cell-based, human. As to the method:
The imaging platform microscope CX-A (Nanolive SA, Lausanne, Switzerland) was used to get refractive indexes (RIs), creating a holotomographic 3D image of the cells. HeLa cells were employed at a density of 50,000 cells/well onto an IBIDI μ-Dish, 35 mm high (IBIDI, Gräfelfing, Munich, Germany) and treated with compounds 1 and 2 right before the acquisition of the images at a dose of 80 µM and 50 µM, respectively. Data obtained were transferred to FIJI (NIH, Bethesda, MD, USA) for image analysis. The LIVE Cell Death Assay (LCDA) software (Nanolive SA) was used for the analysis of the RIs and for obtaining apoptosis kinetics.

The next test is described as follows: Radical DPPH inhibition. It counts as biochemical. The conditions noted are these: mean ± SD, n = 3.
Test [4] can be described thus: ABTS•+ scavenging capacity. The class given is biochemical. Particulars: mean ± SD, n = 3. As to the method: The ABTS^•+ radical scavenging assay was employed to determine the antioxidant activity of G. pinifolium conventional extracts; the radical solution was prepared 16 h before the measurements mixing 7 mM ABTS and 2.45 mM K2S2O8, and the solution was stored protected from the light at room temperature until the ABTS radical formation. For the assay, were mixed 250 µL of ABTS radical with an increasing concentration of sample or positive control (Trolox), and after half an hour, the absorbance was measured at 734 nm with a Synergy HTX microplate reader. The results are expressed as IC50 in µg of extract or Trolox per mL. The percentage of radical inhibition formula was employed for the ABTS inhibition calculation, then the IC50 was calculated through linear regression (concentration vs. inhibition percentage), and the data is reported as the mean ± SD.

T1 sequence (O42275 24-633): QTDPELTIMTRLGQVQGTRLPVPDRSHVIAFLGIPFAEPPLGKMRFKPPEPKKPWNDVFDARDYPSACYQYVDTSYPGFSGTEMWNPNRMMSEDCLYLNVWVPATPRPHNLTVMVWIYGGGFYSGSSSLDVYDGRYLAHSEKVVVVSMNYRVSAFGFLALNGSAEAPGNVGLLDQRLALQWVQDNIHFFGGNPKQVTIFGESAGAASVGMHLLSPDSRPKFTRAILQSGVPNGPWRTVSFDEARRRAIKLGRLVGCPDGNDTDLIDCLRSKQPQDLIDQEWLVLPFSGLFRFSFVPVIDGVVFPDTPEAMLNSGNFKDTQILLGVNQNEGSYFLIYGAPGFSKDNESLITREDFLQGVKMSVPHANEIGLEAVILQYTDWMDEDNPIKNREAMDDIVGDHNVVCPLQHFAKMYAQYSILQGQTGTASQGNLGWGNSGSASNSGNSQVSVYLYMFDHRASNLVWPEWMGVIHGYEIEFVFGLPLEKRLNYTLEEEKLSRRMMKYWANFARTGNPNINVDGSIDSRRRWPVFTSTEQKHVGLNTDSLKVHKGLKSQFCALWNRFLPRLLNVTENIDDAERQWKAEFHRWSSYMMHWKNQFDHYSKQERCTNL
T2 sequence (P81908 whole entry): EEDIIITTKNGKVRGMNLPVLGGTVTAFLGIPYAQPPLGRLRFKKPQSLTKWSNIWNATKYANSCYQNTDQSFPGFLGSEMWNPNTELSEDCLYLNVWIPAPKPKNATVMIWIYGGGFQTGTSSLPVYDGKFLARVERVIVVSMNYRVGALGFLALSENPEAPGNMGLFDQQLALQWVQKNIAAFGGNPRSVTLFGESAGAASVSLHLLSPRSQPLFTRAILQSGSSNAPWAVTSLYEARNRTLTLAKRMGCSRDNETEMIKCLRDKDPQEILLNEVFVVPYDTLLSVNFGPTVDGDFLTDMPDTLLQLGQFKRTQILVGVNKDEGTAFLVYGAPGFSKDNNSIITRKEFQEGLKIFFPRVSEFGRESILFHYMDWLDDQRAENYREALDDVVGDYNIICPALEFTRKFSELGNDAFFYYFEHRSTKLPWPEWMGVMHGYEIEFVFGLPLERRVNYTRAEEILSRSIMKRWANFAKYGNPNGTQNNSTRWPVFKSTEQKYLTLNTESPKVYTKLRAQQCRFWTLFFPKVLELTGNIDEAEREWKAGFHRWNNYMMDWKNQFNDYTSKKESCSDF
Description for Radical DPPH inhibition: The radical DPPH inhibition was performed by mixing thoroughly 150 µL of DPPH 400 μM with 50 µL of the sample or positive control, the 96-well microplate was kept protected from the light, and after half hour of reaction, the absorbance was recorded at 515 nm in a Synergy HTX microplate reader [13, 16]. All the measurements were performed in triplicate. The data are expressed as IC50 in µg of extract or standard per mL and reported as the mean ± SD. The determination of the IC50 was performed using linear regression. Methanol was employed as a negative control and BHT as a positive control. The percentage of DPPH radical inhibition was calculated according to the following equation: Percentage of radical inhibition (%)=(1−A−As/ADPPH)×100
A: is the absorbance of the mixture of extract and radical, As: is the absorbance of the methanol and extract, and ADDPH: is the absorbance of the radical work solution.

On to `CC1=C(C(=O)CC(C)C)O[C@@H](CC(=O)c2c(C)cccc2O)[C@H]2[C@@H]1CC[C@@H]2C` [Compound 1, 2-nor-1,2-secolycoserone], for which the “relaxation effect in aortic rings” value with intact rat aorta is on record as “slight relaxation effect; also recorded: do not cause vascular relaxation”. For the same compound, the IC50 is 3.15 µM in test [1], 29.2 µM in [2] and 15 µM with MCF-7. The GI50 is 23 ± 7.2 µM in the test on A549 cells (lung) (Homo sapiens, A549, 48 h); 31 ± 0.3 µM in the test on HBL-100 cells (breast) (Homo sapiens, HBL-100, 48 h); 21 ± 4.5 µM with HeLa cells (cervix) (Homo sapiens, HeLa); 25 ± 5.6 µM with SW1573 cells (lung) (Homo sapiens, SW1573, 48 h); 30 ± 0.1 µM in the test with T-47D cells (breast) (Homo sapiens, T47D); 36 ± 4.1 µM with WiDr cells (colon) (Homo sapiens, WiDr). The “TGI (total growth inhibition) against HeLa cells” value in the test on HeLa cells (cervix) stood at 82 ± 4.5 µM. For the same compound, the LC50 (50% lethal concentration) in the test with HeLa cells (cervix) (Homo sapiens, HeLa) is above 100 µM.

`CC1=C(CC/C(C)=C/CO)[C@]2(C)CCCC(C)(C)C2CC1` (stereo partly drawn) [Compound 2, ent-labda-8,13-E-diene-15-ol]: the “relaxation effect in aortic rings” value with intact rat aorta was “slight relaxation effect; also recorded: do not cause vascular relaxation; also recorded: no vascular relaxation”. Further, the values for the 50% inhibitory concentration (IC50) in [1] and in test [2] were 18.8 µM and 63.1 µM, respectively. Besides, the GI50 turned out to be 4.5 ± 0.1 µM with A549 cells (lung) (Homo sapiens, A549, 48 h); 10 ± 1.3 µM in the test with HBL-100 cells (breast) (Homo sapiens, HBL-100, 48 h); 4.8 ± 0.3 µM in the test on HeLa cells (cervix) (Homo sapiens, HeLa); 5.4 ± 0.6 µM in the test on SW1573 cells (lung) (Homo sapiens, SW1573, 48 h); 5.1 ± 0.3 µM in the test with T-47D cells (breast) (Homo sapiens, T47D); 9 ± 3.4 µM in the test on WiDr cells (colon) (Homo sapiens, WiDr). Besides, the GI50 in [3] is 4.5 to 10 µM. Further, the “TGI (total growth inhibition) against HeLa cells” value in the test with HeLa cells (cervix) came out at 46 ± 0.3 µM. The LC50 (50% lethal concentration) in the test on HeLa cells (cervix) (Homo sapiens, HeLa) came out at 69 ± 27 µM. Moreover, in the test with HeLa cells, the “apoptosis kinetics (onset of cell death)” value is “induce death in HeLa cells earlier than coumarin 1”.

As to `N.N.[Cl][Pt][Cl]` [Cisplatin, reference compound], the GI50 in the test on A549 cells (lung) (48 h) was determined as 4.9 ± 0.2 µM; in the test with HBL-100 cells (breast) (48 h), 1.9 ± 0.2 µM; with HeLa cells (cervix), 1.8 ± 0.5 µM; with SW1573 cells (lung) (48 h) it was 2.7 ± 0.4 µM; in the test on T-47D cells (breast) it was 17 ± 3.3 µM; in the test on WiDr cells (colon) it was 23 ± 4.3 µM.

Regarding `Cc1cc(C(C)(C)C)c(O)c(C(C)(C)C)c1` [BHT], the “DPPH IC50” value in “Radical DPPH inhibition” amounted to 25.09 ± 0.55 μg per mL.

Take `Cc1c(C)c2c(c(C)c1O)CCC(C)(C(=O)O)O2` (racemic) [Trolox, (±)-6-Hydroxy-2,5,7,8-tetramethylchromane-2-carboxylic acid]: in test [4], the “ABTS IC50” value stood at 2.33 ± 0.11 μg per mL.
